How the values were obtained:
[1] = target: T1, recombinant N-terminal PMS2 (residues 1-365) (Homo sapiens, UniProt P54278); test: Fluorescence Polarisation Assay for PMS2; assay type: binding; details: fluorescence polarisation probe displacement; 10 nM N-terminal PMS2, 5 nM probe compound; read-out: PMS2 IC50
T1 construct: recombinant N-terminal PMS2 (residues 1-365)
T1 sequence (P54278 1-365): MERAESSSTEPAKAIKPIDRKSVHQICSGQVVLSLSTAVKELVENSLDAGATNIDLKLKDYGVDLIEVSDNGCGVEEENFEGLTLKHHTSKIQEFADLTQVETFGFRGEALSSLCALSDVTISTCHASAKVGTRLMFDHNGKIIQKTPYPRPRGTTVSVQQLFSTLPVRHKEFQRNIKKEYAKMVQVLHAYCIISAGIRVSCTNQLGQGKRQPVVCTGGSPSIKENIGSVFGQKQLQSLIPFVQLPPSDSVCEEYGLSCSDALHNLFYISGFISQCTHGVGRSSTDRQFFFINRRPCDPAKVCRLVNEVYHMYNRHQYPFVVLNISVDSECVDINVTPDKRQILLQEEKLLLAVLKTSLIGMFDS
Outline: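 Competition fluorescence polarisation with 10 nM N-terminal PMS2 and 5 nM fluorescent probe (final), read after 1 h at room temperature following 30 min compound pre-incubation. Data normalised to no-inhibitor and no-enzyme controls; single-point screening or serial dilutions for potency.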

[2] = target: T2, recombinant N-terminal MLH1 (residues 15-340) (Homo sapiens, UniProt P40692); test: Fluorescence Polarisation Assay for MLH1; assay type: binding; details: fluorescence polarisation probe displacement; 100 nM N-terminal MLH1, 5 nM probe compound
T2 construct: recombinant N-terminal MLH1 (residues 15-340)
T2 sequence (P40692 15-340): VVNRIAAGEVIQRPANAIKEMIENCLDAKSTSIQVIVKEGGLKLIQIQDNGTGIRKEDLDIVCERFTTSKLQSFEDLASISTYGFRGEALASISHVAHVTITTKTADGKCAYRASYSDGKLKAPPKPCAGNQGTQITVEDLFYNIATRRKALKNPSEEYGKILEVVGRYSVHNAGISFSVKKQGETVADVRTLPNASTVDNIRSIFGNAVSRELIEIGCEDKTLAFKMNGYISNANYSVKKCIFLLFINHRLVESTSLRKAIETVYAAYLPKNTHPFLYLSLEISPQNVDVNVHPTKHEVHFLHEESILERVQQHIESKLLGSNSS
Outline: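 FP displacement assay: 100 nM MLH1 (residues 15-340) preincubated 30 min at room temperature with compound in 25 mM HEPES pH 7.5, 250 mM NaCl, 10 mM MgCl2, 0.01% Triton X-100, 5 mM DTT, then 5 nM rhodamine-labelled probe added and read immediately. Data normalised to no-inhibitor and no-enzyme controls.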

With `CN1CCN(Cc2cc3c(c(N[C@@H]4CCOC4)c2)CN(C(=O)c2c(O)cc(O)cc2OCc2ccccc2)CC3)CC1` [Example 122, (R)-(2-(Benzyloxy)-4,6-dihydroxyphenyl)(6-((4-methylpiperazin-1-yl)methyl)-8-((tetrahydrofuran-3-yl)amino)-3,4-dihydroisoquinolin-2(1H)-yl)methanone] the IC50 [1] was 1000 to 10000 nM and the IC50 [2] was < 1000 nM.

`Cc1ncncc1Nc1cccc2c1CN(C(=O)c1c(O)cc(O)cc1OCc1ccccc1)CC2` [Example 123, (2-(Benzyloxy)-4,6-dihydroxyphenyl)(8-((4-methylpyrimidin-5-yl)amino)-3,4-dihydroisoquinolin-2(1H)-yl)methanone] was tested, and the IC50 [1] was > 10000 nM and the IC50 [2] was 1000 to 10000 nM.

With `Cc1cccc(COc2cc(O)cc(O)c2C(=O)N2CCc3cccc(N[C@H]4CCOC4)c3C2)c1` [Example 124, (S)-(2,4-Dihydroxy-6-((3-methylbenzyl)oxy)phenyl)(8-((tetrahydrofuran-3-yl)amino)-3,4-dihydroisoquinolin-2(1H)-yl)methanone] the IC50 [1] was < 1000 nM and the IC50 [2] was < 1000 nM.

In the case of `CN(C)Cc1cc2c(c(N[C@H]3CCOC3)c1)CN(C(=O)c1c(O)cc(O)cc1OCc1ccccc1)CC2` [Example 125, (S)-(2-(Benzyloxy)-4,6-dihydroxyphenyl)(6-((dimethylamino)methyl)-8-((tetrahydrofuran-3-yl)amino)-3,4-dihydroisoquinolin-2(1H)-yl)methanone], the IC50 [1] is reported as < 1000 nM and the IC50 [2] is reported as < 1000 nM.

`CN(C)Cc1cc2c(c(N[C@@H]3CCOC3)c1)CN(C(=O)c1c(O)cc(O)cc1OCc1ccccc1)CC2` [Example 126, (R)-(2-(Benzyloxy)-4,6-dihydroxyphenyl)(6-((dimethylamino)methyl)-8-((tetrahydrofuran-3-yl)amino)-3,4-dihydroisoquinolin-2(1H)-yl)methanone] was tested, and the IC50 [1] was 1000 to 10000 nM and the IC50 [2] was < 1000 nM.

`CN1CCN(C(=O)c2cc3c(c(N[C@H]4CCOC4)c2)CN(C(=O)c2c(O)cc(O)cc2OCc2ccccc2)CC3)CC1` [Example 127, (S)-(2-(2-(Benzyloxy)-4,6-dihydroxybenzoyl)-8-((tetrahydrofuran-3-yl)amino)-1,2,3,4-tetrahydroisoquinolin-6-yl)(4-methylpiperazin-1-yl)methanone] was tested, and the IC50 [1] was < 1000 nM and the IC50 [2] was < 1000 nM.

With `CNc1cc(OCCOC)cc2c1CN(C(=O)c1c(O)cc(O)cc1OCc1ccccc1)CC2` [Example 128, (2-(Benzyloxy)-4,6-dihydroxyphenyl)(6-(2-methoxyethoxy)-8-(methylamino)-3,4-dihydroisoquinolin-2(1H)-yl)methanone] the IC50 [1] was 1000 to 10000 nM and the IC50 [2] was 1000 to 10000 nM.

In the case of `CN(C)C(=O)c1cc2c(c(N[C@@H]3CCOC3)c1)CN(C(=O)c1c(O)cc(O)cc1OCc1ccccc1)CC2` [Example 129, (R)-2-(2-(Benzyloxy)-4,6-dihydroxybenzoyl)-N,N-dimethyl-8-((tetrahydrofuran-3-yl)amino)-1,2,3,4-tetrahydroisoquinoline-6-carboxamide], the IC50 [1] is reported as 1000 to 10000 nM and the IC50 [2] is reported as < 1000 nM.

With `CN(C)C(=O)c1cc2c(c(N[C@H]3CCOC3)c1)CN(C(=O)c1c(O)cc(O)cc1OCc1ccccc1)CC2` [Example 130, (S)-2-(2-(Benzyloxy)-4,6-dihydroxybenzoyl)-N,N-dimethyl-8-((tetrahydrofuran-3-yl)amino)-1,2,3,4-tetrahydroisoquinoline-6-carboxamide] the IC50 [1] was < 1000 nM and the IC50 [2] was < 1000 nM.

`CN(C)CCOc1cc2c(c(N[C@@H]3CCOC3)c1)CN(C(=O)c1c(O)cc(O)cc1OCc1ccccc1)CC2` [Example 131, (R)-(2-(Benzyloxy)-4,6-dihydroxyphenyl)(6-(2-(dimethylamino)ethoxy)-8-((tetrahydrofuran-3-yl)amino)-3,4-dihydroisoquinolin-2(1H)-yl)methanone] was tested, and the IC50 [1] was 1000 to 10000 nM and the IC50 [2] was < 1000 nM.

With `CN(C)CCOc1cc2c(c(N[C@H]3CCOC3)c1)CN(C(=O)c1c(O)cc(O)cc1OCc1ccccc1)CC2` [Example 132, (S)-(2-(Benzyloxy)-4,6-dihydroxyphenyl)(6-(2-(dimethylamino)ethoxy)-8-((tetrahydrofuran-3-yl)amino)-3,4-dihydroisoquinolin-2(1H)-yl)methanone] the IC50 [1] was < 1000 nM and the IC50 [2] was < 1000 nM.

With `Cn1ccc(Nc2cccc3c2CN(C(=O)c2c(O)cc(O)cc2OCc2ccccc2)CC3)cc1=O` [Example 133, 4-((2-(2-(Benzyloxy)-4,6-dihydroxybenzoyl)-1,2,3,4-tetrahydro-isoquinolin-8-yl)amino)-1-methylpyridin-2(1H)-one] the IC50 [1] was 1000 to 10000 nM and the IC50 [2] was 1000 to 10000 nM.

`O=C(c1c(O)cc(O)cc1OCc1ccccc1)N1CCc2cccc(Nc3ccc(=O)[nH]c3)c2C1` [Example 134, 5-((2-(2-(Benzyloxy)-4,6-dihydroxybenzoyl)-1,2,3,4-tetrahydroisoquinolin-8-yl)amino)pyridin-2(1H)-one] was tested, and the IC50 [1] was > 10000 nM and the IC50 [2] was < 1000 nM.

In the case of `Cn1cc(Nc2cccc3c2CN(C(=O)c2c(O)cc(O)cc2OCc2ccccc2)CC3)ccc1=O` [Example 135, 5-((2-(2-(Benzyloxy)-4,6-dihydroxybenzoyl)-1,2,3,4-tetrahydroisoquinolin-8-yl)amino)-1-methylpyridin-2(1H)-one], the IC50 [1] is reported as 1000 to 10000 nM and the IC50 [2] is reported as < 1000 nM.

With `CN1C[C@H](Nc2cccc3c2CN(C(=O)c2c(O)cc(O)cc2OCc2ccccc2)C3)CC1=O` [Example 136, (R)-4-((2-(2-(Benzyloxy)-4,6-dihydroxybenzoyl)isoindolin-4-yl)amino)-1-methylpyrrolidin-2-one] the IC50 [1] was < 1000 nM and the IC50 [2] was < 1000 nM.

With `CN1C[C@@H](Nc2cccc3c2CN(C(=O)c2c(O)cc(O)cc2OCc2ccccc2)C3)CC1=O` [Example 137, (S)-4-((2-(2-(Benzyloxy)-4,6-dihydroxybenzoyl)isoindolin-4-yl)amino)-1-methylpyrrolidin-2-one] the IC50 [1] was < 1000 nM and the IC50 [2] was < 1000 nM.

In the case of `CN1CCC(Oc2cc3c(c(N[C@@H]4CCOC4)c2)CN(C(=O)c2c(O)cc(O)cc2OCc2ccccc2)CC3)CC1` [Example 138, (R)-(2-(Benzyloxy)-4,6-dihydroxyphenyl)(6-((1-methylpiperidin-4-yl)oxy)-8-((tetrahydrofuran-3-yl)amino)-3,4-dihydroisoquinolin-2(1H)-yl)methanone], the IC50 [1] is reported as 1000 to 10000 nM and the IC50 [2] is reported as < 1000 nM.

`CN1CCC(Oc2cc3c(c(N[C@H]4CCOC4)c2)CN(C(=O)c2c(O)cc(O)cc2OCc2ccccc2)CC3)CC1` [Example 139, (S)-(2-(Benzyloxy)-4,6-dihydroxyphenyl)(6-((1-methylpiperidin-4-yl)oxy)-8-((tetrahydrofuran-3-yl)amino)-3,4-dihydroisoquinolin-2(1H)-yl)methanone] was tested, and the IC50 [1] was < 1000 nM and the IC50 [2] was < 1000 nM.

For `O=C(c1c(O)cc(O)cc1OCC1CCCCC1)N1CCc2cccc(N[C@H]3CCOC3)c2C1` [Example 140, (S)-(2-(Cyclohexylmethoxy)-4,6-dihydroxyphenyl)(8-((tetrahydrofuran-3-yl)amino)-3,4-dihydroisoquinolin-2(1H)-yl)methanone], the IC50 [1] was < 1000 nM and the IC50 [2] was 1000 to 10000 nM.

For `COCCOc1cc2c(c(N[C@@H]3CCOC3)c1)CN(C(=O)c1c(O)cc(O)cc1OCC1CC1)CC2` [Example 141, (R)-(2-(Cyclopropylmethoxy)-4,6-dihydroxyphenyl)(6-(2-methoxyethoxy)-8-((tetrahydrofuran-3-yl)amino)-3,4-dihydroisoquinolin-2(1H)-yl)methanone], the IC50 [1] was > 10000 nM and the IC50 [2] was 1000 to 10000 nM.

With `COCCOc1cc2c(c(N[C@@H]3CCOC3)c1)CN(C(=O)c1c(O)cc(O)cc1OCc1ccccn1)CC2` [Example 142, (R)-(2,4-Dihydroxy-6-(pyridin-2-ylmethoxy)phenyl)(6-(2-methoxyethoxy)-8-((tetrahydrofuran-3-yl)amino)-3,4-dihydroisoquinolin-2(1H)-yl)methanone] the IC50 [1] was > 10000 nM and the IC50 [2] was < 1000 nM.

In the case of `CN(c1cccc2c1CN(C(=O)c1c(O)cc(O)cc1OCc1ccccc1)CC2)C1CCOC1` (stereo not shown) [Example 143, (2-(Benzyloxy)-4,6-dihydroxyphenyl)(8-(methyl(tetrahydrofuran-3-yl)amino)-3,4-dihydroisoquinolin-2(1H)-yl)methanone], the IC50 [1] is reported as > 10000 nM and the IC50 [2] is reported as > 10000 nM.

With `O=C(c1c(O)cc(O)cc1OCc1ccccc1)N1Cc2ccc(CNC3COC3)cc2C1` [Example 144, 2-(Benzyloxy)-4,6-dihydroxyphenyl-(5-((oxetan-3-ylamino)methyl)isoindolin-2-yl)methanone] the IC50 [1] was < 1000 nM and the IC50 [2] was < 1000 nM.
